Test results reported in patent US8258134B2, “Pyridazinone glucokinase activators” (Hoffmann-La Roche Inc., priority 2008, dated 2012).

Target: T1, Recombinant human liver GK1 (GST-GK) (Homo sapiens, UniProt P35557)
T1 construct: made in house; host or cells: E. coli
T1 sequence (P35557 1-466 isoform P35557-2): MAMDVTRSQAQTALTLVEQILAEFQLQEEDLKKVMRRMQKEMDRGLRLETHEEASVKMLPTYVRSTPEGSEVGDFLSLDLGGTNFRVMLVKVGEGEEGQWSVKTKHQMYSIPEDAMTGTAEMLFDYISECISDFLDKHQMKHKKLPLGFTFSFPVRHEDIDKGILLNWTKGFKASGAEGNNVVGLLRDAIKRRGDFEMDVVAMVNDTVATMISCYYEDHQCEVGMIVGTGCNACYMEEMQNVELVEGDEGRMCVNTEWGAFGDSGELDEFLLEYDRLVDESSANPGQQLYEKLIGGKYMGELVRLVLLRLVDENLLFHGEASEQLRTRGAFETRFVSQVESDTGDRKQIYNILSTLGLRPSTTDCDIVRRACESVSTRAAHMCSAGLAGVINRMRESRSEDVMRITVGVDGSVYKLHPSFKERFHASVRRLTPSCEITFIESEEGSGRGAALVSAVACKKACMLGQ
Assay: Glucokinase in vitro assay (G6PDH-coupled NADH generation, OD340)
Type: biochemical
Details: 5 mM D-glucose; for fold activation @ 30 uM: 30 uM test compound; for SC1.5 average (concentration of activator that produced a 50% increase in the activity of GK): 30° C., pH 7.1, 10% DMSO
Method: Glucokinase In Vitro Assay Protocol: Glucokinase (GK) was assayed by coupling the production of glucose-6-phosphate to the generation of NADH with glucose-6-phosphate dehydrogenase (G6PDH, 0.75-1 k units/mg; Boehringer Mannheim, Indianapolis, Ind.) from Leuconostoc mesenteroides as the coupling enzyme (Scheme 2):
Recombinant human liver GK1 was expressed in E. coli as a glutathione S-transferase fusion protein (GST-GK) [Liang et al, 1995] and was purified by chromatography over a glutathione-Sepharose 4B affinity column using the procedure provided by the manufacturer (Amersham Pharmacia Biotech, Piscataway, N.J.).
The assay was conducted at 30° C. in a flat bottom 96-well tissue culture plate from Costar (Cambridge, Mass.) with a final incubation volume of 120 μL. The incubation reaction contained the following: 25 mM Hepes buffer (pH 7.1), 25 mM KCl, 5 mM D-glucose, 1 mM ATP, 1.8 mM NAD, 2 mM MgCl2, 1 μM sorbitol-6-phosphate, 1 mM dithiothreitol, test drug or 10% DMSO, ˜7 units/ml G6PDH, and GK (see below). All organic reagents were >98% pure and were from Boehringer Mannheim with the exceptions of D-glucose and Hepes which were from Sigma Chemical Co, St Louis, Mo. Test compounds were dissolved in DMSO and were added to the incubation reaction minus GST-GK in a volume of 12 μL to yield a final DMSO concentration of 10%. This mix was pre-incubated in the temperature controlled chamber of a SPECTRAmax 250 microplate spectrophotometer (Molecular Devices Corporation, Sunnyvale, Calif.) for 10 minutes to allow temperature equilibrium and then the reaction was started by the addition of 20 μL GST-GK.
After addition of enzyme, the increase in optical density (OD) at 340 nm was monitored spectrophotometrically to determine the rate of change (OD340 per min). The GK activity (OD340/min) in control wells (10% DMSO minus GK activators) was compared with the activity in wells containing test GK activators, and the concentration of activator that produced a 50% increase in the activity of GK, i.e., the SC1.5, was calculated. The table below provides the in vitro glucokinase activity for the compounds in the Examples: […]

| fold activation @ 30 uM | SC1.5 average (concentration of activator that produced a 50% increase in the activity of GK) | Structure (SMILES) |
| --- | --- | --- |
| 1.22 fold | > 30 µM | CC(C)(O)Cn1ccc(NC(=O)[C@@H](CC2CCCC2)n2ncc(Oc3ccccc3C3CCCC3)cc2=O)n1 [Example 22B, (R)-3-Cyclopentyl-2-[4-(2-cyclopentyl-phenoxy)-6-oxo-6H-pyridazin-1-yl]-N-[1-(2-hydroxy-2-methyl-propyl)-1H-pyrazol-3-yl]-propionamide] |
| – | 0.868 µM | CC(C)(O)Cn1ccc(NC(=O)C(CC2CCCC2)n2ncc(Oc3ccccc3-c3ccccc3)cc2=O)n1 (stereo not shown) [Example 23, 2-[4-(Biphenyl-2-yloxy)-6-oxo-6H-pyridazin-1-yl]-3-cyclopentyl-N-[1-(2-hydroxy-2-methyl-propyl)-1H-pyrazol-3-yl]-propionamide] |
| – | 0.1 µM | Cc1ccccc1Oc1cnn([C@@H](CC2CCCC2)C(=O)Nc2ccn(CC(C)(C)O)n2)c(=O)c1 [Example 24A, (S)-3-Cyclopentyl-N-[1-(2-hydroxy-2-methyl-propyl)-1H-pyrazol-3-yl]-2-(6-oxo-4-o-tolyloxy-6H-pyridazin-1-yl)-propionamide] |
| – | 5.88 µM | Cc1ccccc1Oc1cnn([C@H](CC2CCCC2)C(=O)Nc2ccn(CC(C)(C)O)n2)c(=O)c1 [Example 24B, (R)-3-Cyclopentyl-N-[1-(2-hydroxy-2-methyl-propyl)-1H-pyrazol-3-yl]-2-(6-oxo-4-o-tolyloxy-6H-pyridazin-1-yl)-propionamide] |
| – | 1.773 µM | Cc1ncccc1Oc1cnn(C(CC2CCCC2)C(=O)Nc2ccn(CC(C)(C)O)n2)c(=O)c1 (stereo not shown) [Example 25, 3-Cyclopentyl-N-[1-(2-hydroxy-2-methyl-propyl)-1H-pyrazol-3-yl]-2-[4-(2-methyl-pyridin-3-yloxy)-6-oxo-6H-pyridazin-1-yl]-propionamide] |
| – | 0.196 µM | CC(C)(O)Cn1ccc(NC(=O)C(CC2CCCC2)n2ncc(Oc3ccccc3N3CCCC3)cc2=O)n1 (stereo not shown) [Example 26, 3-Cyclopentyl-N-[1-(2-hydroxy-2-methyl-propyl)-1H-pyrazol-3-yl]-2-[6-oxo-4-(2-pyrrolidin-1-yl-phenoxy)-6H-pyridazin-1-yl]-propionamide] |
| – | 0.102 µM | CC(C)(O)Cn1ccc(NC(=O)[C@H](CC2CCCC2)n2ncc(Oc3ccccc3N3CCCC3)cc2=O)n1 [Example 26A, (S)-3-Cyclopentyl-N-[1-(2-hydroxy-2-methyl-propyl)-1H-pyrazol-3-yl]-2-[6-oxo-4-(2-pyrrolidin-1-yl-phenoxy)-6H-pyridazin-1-yl]-propionamide] |
| – | 26.027 µM | CC(C)(O)Cn1ccc(NC(=O)[C@@H](CC2CCCC2)n2ncc(Oc3ccccc3N3CCCC3)cc2=O)n1 [Example 26B, (R)-3-Cyclopentyl-N-[1-(2-hydroxy-2-methyl-propyl)-1H-pyrazol-3-yl]-2-[6-oxo-4-(2-pyrrolidin-1-yl-phenoxy)-6H-pyridazin-1-yl]-propionamide] |
| – | 2.385 µM | CC(C)(O)Cn1ccc(NC(=O)C(CC2CCCC2)n2ncc(Oc3ccccc3N3CCCCC3)cc2=O)n1 (stereo not shown) [Example 27, 3-Cyclopentyl-N-[1-(2-hydroxy-2-methyl-propyl)-1H-pyrazol-3-yl]-2-[6-oxo-4-(2-piperidin-1-yl-phenoxy)-6H-pyridazin-1-yl]-propionamide] |
| – | 1.925 µM | CC(C)(O)Cn1ccc(NC(=O)C(CC2CCCC2)n2ncc(Oc3cccnc3)cc2=O)n1 (stereo not shown) [Example 28, 3-Cyclopentyl-N-[1-(2-hydroxy-2-methyl-propyl)-1H-pyrazol-3-yl]-2-[6-oxo-4-(pyridin-3-yloxy)-6H-pyridazin-1-yl]-propionamide] |
| – | 0.159 µM | CC(C)(O)Cn1ccc(NC(=O)[C@H](CC2CCCC2)n2ncc(Oc3ccccc3C#N)cc2=O)n1 [Example 29A, (S)-2-[4-(2-Cyano-phenoxy)-6-oxo-6H-pyridazin-1-yl]-3-cyclopentyl-N-[1-(2-hydroxy-2-methyl-propyl)-1H-pyrazol-3-yl]-propionamide] |
| – | 11.185 µM | CC(C)(O)Cn1ccc(NC(=O)[C@@H](CC2CCCC2)n2ncc(Oc3ccccc3C#N)cc2=O)n1 [Example 29B, (R)-2-[4-(2-Cyano-phenoxy)-6-oxo-6H-pyridazin-1-yl]-3-cyclopentyl-N-[1-(2-hydroxy-2-methyl-propyl)-1H-pyrazol-3-yl]-propionamide] |
| – | 2.975 µM | CC(C)(O)Cn1ccc(NC(=O)C(CC2CCCC2)n2ncc(Oc3ccccc3S(C)(=O)=O)cc2=O)n1 (stereo not shown) [Example 30, 3-Cyclopentyl-N-[1-(2-hydroxy-2-methyl-propyl)-1H-pyrazol-3-yl]-2-[4-(2-methanesulfonyl-phenoxy)-6-oxo-6H-pyridazin-1-yl]-propionamide] |
| – | 1.566 µM | CC(C)(O)Cn1ccc(NC(=O)[C@H](CC2CCCC2)n2ncc(Oc3ccccc3S(C)(=O)=O)cc2=O)n1 [Example 30A, (S)-3-Cyclopentyl-N-[1-(2-hydroxy-2-methyl-propyl)-1H-pyrazol-3-yl]-2-[4-(2-methanesulfonyl-phenoxy)-6-oxo-6H-pyridazin-1-yl]-propionamide] |
| 1.16 fold | > 30 µM | CC(C)(O)Cn1ccc(NC(=O)[C@@H](CC2CCCC2)n2ncc(Oc3ccccc3S(C)(=O)=O)cc2=O)n1 [Example 30B, (R)-3-Cyclopentyl-N-[1-(2-hydroxy-2-methyl-propyl)-1H-pyrazol-3-yl]-2-[4-(2-methanesulfonyl-phenoxy)-6-oxo-6H-pyridazin-1-yl]-propionamide] |
| – | 0.209 µM | CC(C)(O)Cn1ccc(NC(=O)C(CC2CCCC2)n2ncc(Oc3cccc(F)c3F)cc2=O)n1 (stereo not shown) [Example 31, 3-Cyclopentyl-2-[4-(2,3-difluoro-phenoxy)-6-oxo-6H-pyridazin-1-yl]-N-[1-(2-hydroxy-2-methyl-propyl)-1H-pyrazol-3-yl]-propionamide] |
| – | 0.18 µM | CC(C)(O)Cn1ccc(NC(=O)[C@H](CC2CCCC2)n2ncc(Oc3cccc(F)c3F)cc2=O)n1 [Example 31A, (S)-3-Cyclopentyl-2-[4-(2,3-difluoro-phenoxy)-6-oxo-6H-pyridazin-1-yl]-N-[1-(2-hydroxy-2-methyl-propyl)-1H-pyrazol-3-yl]-propionamide] |
| – | 15.901 µM | CC(C)(O)Cn1ccc(NC(=O)[C@@H](CC2CCCC2)n2ncc(Oc3cccc(F)c3F)cc2=O)n1 [Example 31B, (R)-3-Cyclopentyl-2-[4-(2,3-difluoro-phenoxy)-6-oxo-6H-pyridazin-1-yl]-N-[1-(2-hydroxy-2-methyl-propyl)-1H-pyrazol-3-yl]-propionamide] |
| – | 0.745 µM | CC(C)(O)Cn1ccc(NC(=O)C(CC2CCCC2)n2ncc(Oc3ccc(F)cc3F)cc2=O)n1 (stereo not shown) [Example 32, 3-Cyclopentyl-2-[4-(2,4-difluoro-phenoxy)-6-oxo-6H-pyridazin-1-yl]-N-[1-(2-hydroxy-2-methyl-propyl)-1H-pyrazol-3-yl]-propionamide] |
| – | 0.502 µM | CC(C)(O)Cn1ccc(NC(=O)[C@H](CC2CCCC2)n2ncc(Oc3ccc(F)cc3F)cc2=O)n1 [Example 32A, (S)-3-Cyclopentyl-2-[4-(2,4-difluoro-phenoxy)-6-oxo-6H-pyridazin-1-yl]-N-[1-(2-hydroxy-2-methyl-propyl)-1H-pyrazol-3-yl]-propionamide] |
